Laboratory results published in article PMC9065877, “Safety, tolerability and pharmacokinetics of the oligomer modulator anle138b with exposure levels sufficient for therapeutic efficacy in a murine Parkinson model: A randomised, double-blind, placebo-controlled phase 1a trial” (EBioMedicine, 2022).

Tests used:
[1] = Single ascending dose (SAD) oral pharmacokinetics of anle138b in healthy subjects, plasma; assay type: in vivo, human; conditions: for AUC(0-t) / Cmax: human, plasma, fasted, geometric mean (CV%); for AUC(0-t): read-out: AUC(0-24)
Experimental: (§1) This was a single-centre, double-blind, randomised, placebo-controlled single ascending dose (SAD) and multiple ascending dose (MAD) study of anle138b in doses of up to 300 mg per day in healthy subjects. In addition, the effect of food (FES) on the PK of anle138b in healthy subjects was examined using single doses of 150 mg. Participants were recruited from Quotient Sciences (Nottingham, UK) volunteer database.
(§2) As a safety precaution, sentinel dosing was performed for all SAD and MAD cohorts. In SAD, subjects received a single dose of anle138b or placebo after fasting from all food and drink (except water) for a minimum of 8 h prior to dosing. The dosing in the four SAD-cohorts were 50 mg, 100 mg, 200 mg and 300 mg of free anle138b equivalent, respectively. In the MAD part, participants received anle138b or placebo once daily (QD) for 7 days after fasting from all food and drink (except water) for a minimum of 8 h prior to dosing. The dosing in the three MAD-cohorts was 100 mg, 200 mg and 300 mg of free anle138b equivalent, respectively. Post dosing mouth and hand checks were conducted to ensure the capsules were swallowed. In-study decisions regarding continuation and dose escalation were made by the safety advisory committee (SAC) comprising the principal investigator, the sponsor's medical monitor and a PK expert. For dose escalation to proceed, data needed to be available from a minimum of 6 subjects per cohort with completed per protocol safety and PK assessments up to 48 h after dosing to ensure at least 4 subjects had received active IMP. The decision to proceed to the next higher dose level was based on safety, tolerability and available PK data to 48 h post-dose. The following data were required: Adverse events, vital signs, safety laboratory, ECG, physical examinations, plasma concentrations of anle138b with interim PK parameter estimations (Tmax, Cmax, AUC(0-24), AUC(0-tau), AUC(0-last) and T½, where applicable). Data were provided to the SAC in accordance with Quotient Sciences’ standard operating procedure (SOP) on interim dose decision-making and dose escalation.
(§3) Secondary outcome measures were the oral PK of single (SAD) and multiple (MAD) ascending doses of anle138b in the fasted state as well as the effect of co-administration with food on the PK of anle138b. To this end PK blood samples were taken at day 1 (and for MAD day 7) pre-dose and at 0·5, 1, 1·5, 2, 3, 4, 6, 8, 10, 12, 16 and 20 h post-dose, at days 2 to 6 pre-dose only (MAD) and 24, 30, 36 and 48 h post final dose. Analysis of anle138b in plasma was done at Aptuit, an Evotec company, in Verona, Italy. Time point of last quantifiable data was seen to increase with an increase in dose as follows: SAD: from the 50mg dose (subjects ranged between 8-24h) to the 300mg dose (subjects ranged between 36-48h). MAD: from the 100mg dose (subjects ranged between 8-36h) to the 300mg dose (subjects ranged between 20-48h). In FES, subjects ranged between 24-48h.
(§4) The study was exploratory and no formal sample size calculation was made. Based on experience from previous studies of similar design, eight subjects per cohort were enrolled for parts 1 (SAD) and 2 (MAD) and a total of twelve subjects for part 3 (FES). Populations and analysis sets were determined for safety and PK data after database lock using the criteria defined in the reporting and analysis plan. The safety population and safety analysis set for SAD and MAD were defined after database lock but prior to study unblinding. Statistical analysis and production of summary tables, figures and listings for all safety data (AEs, vital signs, ECGs and safety laboratory assessments) including changes from baseline as required in this study were performed using the statistical package SAS (v9·4). Additional statistics was provided for PK-related data including coefficient of variation (CV%), geometric mean, geometric CV%, and the number n of subjects that were included in the natural logarithmic transformation). […]

[2] = 28-day toxicity study in rats; conditions: rat, in vivo; for Cmax: at 50 mg, read-out: Cmax at NOAEL
Description: This trial followed the recommendations of the EMA (European Medicines Agency) (EMEA/CHMP/SWP/28367/07 Rev. 1; 20 July 2017) and the FDA (Food and Drug Administration) (Guidance for Industry: Estimating the Maximum Safe Starting Dose in Initial Clinical Trials for Therapeutics in Adult Healthy Volunteers. U.S. Department of Health and Human Services Food and Drug Administration Center for Drug Evaluation and Research (CDER) July 2005) for dose finding in a first-in-human study. The safe starting dose was set based on toxicity studies in animals. In a 28-day toxicity study in rats, the no-observed-adverse-effect-level (NOAEL) was determined to be 50 mg/kg/day (human equivalent dose of 8·1 mg/kg using the FDA factor of 6·2 according to the FDA Guidance for Industry “Estimating the Maximum Safe Starting Dose in Initial Clinical Trials for Therapeutics in Adult Healthy Volunteers”). Cmaxǀexposure at 50 mg in males were 2460ǀ25600 and in females 2680ǀ21700 ng/mL ǀ ng*h/mL. In a 28-day cynomolgus monkey toxicity study, the NOAEL was 125 mg/kg/day (human equivalent dose of 40·3 mg/kg). Cmaxǀexposure at 125 mg/kg/day were 3170ǀ15700 (males) and 2720ǀ9720 (females) ng/mL ǀ ng*h/mL. Based upon these NOAELs a safe starting dose derived from the more sensitive species (rat) was calculated using a safety factor of 10 (i.e., 0·8 mg/kg), which corresponds to a dose of approximately 50 mg assuming a body weight of 60 kg. […] Escalation between doses was planned to be flexible depending on emerging results but not to exceed an increment of 2-fold.

[3] = Multiple ascending dose (MAD, QD 7 days) oral pharmacokinetics of anle138b in healthy subjects, plasma; assay type: in vivo, human
Experimental: as §1, §2, §3, §4

[4] = Blood levels of anle138b after chronic dosing (14 days) in food pellets; assay type: in vivo; set-up: dose or concentration left out as unconfirmed; conditions: mouse, oral, doses of ≥11·, read-out: AUC0-24 exposure
Experimental: Based on the analysis of blood levels of anle138b after chronic dosing (14 days) using the same formulation (anle138b in food pellets), doses of ≥11·1 mg/kg/day correspond to an AUC0-24 exposure of ≥ 300 ng*h/ml.

[5] = SAD Cohort B 100 mg single oral dose
[6] = SAD Cohort C 200 mg single oral dose
[7] = SAD Cohort D 300 mg single oral dose

**Q.** With `Brc1cccc(-c2cc(-c3ccc4c(c3)OCO4)n[nH]2)c1` [anle138b, 3-(1,3-benzodioxol-5-yl)-5-(3-bromophenyl)-1H-pyrazole] as the molecule, how does the “Time point of last quantifiable data (range of subjects)” value (“Time point of last quantifiable data” below) ([1]; SAD 50mg dose) read?
**A.** Its value is 8 to 24 h.

**Q.** What about the “Time point of last quantifiable data” value ([1]; SAD 300mg dose) of the same molecule?
**A.** The value was 36 to 48 h.

**Q.** And the AUC(0-t) ([1]; SAD Cohort A 50 mg single oral dose)?
**A.** The AUC(0-t) was 0.113 µg·h/mL.

**Q.** What about the Cmax [1, 5] of the same molecule?
**A.** The Cmax was 0.156 µg/mL.

**Q.** And the AUC(0-t) [1, 5]?
**A.** Its AUC(0-t) is 0.366 µg·h/mL.

**Q.** And the Cmax [1, 6]?
**A.** Its Cmax is 0.458 µg/mL.

**Q.** What about the AUC(0-t) [1, 6] of the same molecule?
**A.** The AUC(0-t) was 1.09 µg·h/mL.

**Q.** What about the Cmax [1, 7] of the same molecule?
**A.** Its Cmax is 0.704 µg/mL.

**Q.** And the AUC(0-t) [1, 7]?
**A.** The AUC(0-t) was 1.65 µg·h/mL.

**Q.** And the “Achievement of potential therapeutic exposure (based upon nonclinical in vivo models)” value ([1]; single 100 mg dose)?
**A.** The value was “already achieved after single 100 mg dose”.

**Q.** What about the Cmax ([2]; female, females) of the same molecule?
**A.** The Cmax was 2.68 µg/mL.

**Q.** What about the Cmax ([2]; male, males) of the same molecule?
**A.** The Cmax was 2.46 µg/mL.

**Q.** What about the NOAEL at 28 days ([2]; 28-day toxicity study, read-out: no-observed-adverse-effect-level (NOAEL)) of the same molecule?
**A.** Its NOAEL at 28 days is 50 mg/kg/day.

**Q.** And the “Time point of last quantifiable data” value ([3]; MAD 100mg dose)?
**A.** The value was 8 to 36 h.

**Q.** What about the “Time point of last quantifiable data” value ([3]; MAD 300mg dose) of the same molecule?
**A.** The value was 20 to 48 h.

**Q.** What about the “Effect of multiple dosing on Tmax” value ([3]; MAD day 7 vs day 1) of the same molecule?
**A.** The value was “unaffected by multiple dosing”.

**Q.** What about the “Exposure relative to the level required for full efficacy in PD mouse model (≥300 ng*h/ml)” value ([3]; highest dose tested (300 mg), multiple dosing) of the same molecule?
**A.** Its value is “more than twice this exposure”.

**Q.** And the Cmax ([3]; human, plasma, oral, 100 mg, MAD Cohort A 100 mg QD, dosing day 1, fasted, geometric mean (CV%))?
**A.** Its Cmax is 0.135 µg/mL.

**Q.** What about the AUC(0-t) ([3]; human, plasma, oral, 100 mg, MAD Cohort A 100 mg QD, dosing day 1, fasted, geometric mean (CV%), read-out: AUC(0-24)) of the same molecule?
**A.** Its AUC(0-t) is 0.261 µg·h/mL.

**Q.** And the AUC(0-t) ([3]; human, plasma, oral, 100 mg, MAD Cohort A 100 mg QD, dosing day 7, fasted, geometric mean (CV%), read-out: AUC(0-24))?
**A.** The AUC(0-t) was 0.141 µg·h/mL.

**Q.** And the Cmax ([3]; human, plasma, oral, 200 mg, MAD Cohort B 200 mg QD, dosing day 1, fasted, geometric mean (CV%))?
**A.** Its Cmax is 0.447 µg/mL.

**Q.** What about the AUC(0-t) ([3]; human, plasma, oral, 200 mg, MAD Cohort B 200 mg QD, dosing day 1, fasted, geometric mean (CV%), read-out: AUC(0-24)) of the same molecule?
**A.** Its AUC(0-t) is 0.905 µg·h/mL.

**Q.** What about the Cmax ([3]; human, plasma, oral, 200 mg, MAD Cohort B 200 mg QD, dosing day 7, fasted, geometric mean (CV%)) of the same molecule?
**A.** The Cmax was 0.128 µg/mL.

**Q.** What about the AUC(0-t) ([3]; human, plasma, oral, 200 mg, MAD Cohort B 200 mg QD, dosing day 7, fasted, geometric mean (CV%), read-out: AUC(0-24)) of the same molecule?
**A.** The AUC(0-t) was 0.308 µg·h/mL.

**Q.** And the AUC(0-t) ([3]; human, plasma, oral, 200 mg, multiple dosing at a daily dose of 200 mg, read-out: Exposure level (AUC0-24))?
**A.** Its AUC(0-t) is no less than 0.3 µg·h/mL.

**Q.** What about the Cmax ([3]; human, plasma, oral, 300 mg, MAD Cohort C 300 mg QD, dosing day 1, fasted, geometric mean (CV%)) of the same molecule?
**A.** The Cmax was 0.91 µg/mL.

**Q.** What about the AUC(0-t) ([3]; human, plasma, oral, 300 mg, MAD Cohort C 300 mg QD, dosing day 1, fasted, geometric mean (CV%), read-out: AUC(0-24)) of the same molecule?
**A.** The AUC(0-t) was 2.21 µg·h/mL.

**Q.** And the Cmax ([3]; human, plasma, oral, 300 mg, MAD Cohort C 300 mg QD, dosing day 7, fasted, geometric mean (CV%))?
**A.** The Cmax was 0.307 µg/mL.

**Q.** And the AUC(0-t) ([3]; human, plasma, oral, 300 mg, MAD Cohort C 300 mg QD, dosing day 7, fasted, geometric mean (CV%), read-out: AUC(0-24))?
**A.** The AUC(0-t) was 0.633 µg·h/mL.

**Q.** And the half-life ([3]; human, plasma, oral, MAD Cohort B 200 mg QD, dosing day 7, fasted, geometric mean (CV%), N=5)?
**A.** The half-life was roughly 10 h.

**Q.** What about the “Day by which steady state exposure appeared to be reached” value ([3]; trough (pre-dose) levels, repeated daily dosing) of the same molecule?
**A.** The value was no more than 5 days.

**Q.** What about the AUC(0-t) [4] of the same molecule?
**A.** Its AUC(0-t) is no less than 0.3 µg·h/mL.
